These results are taken from patent US11873320B2 (REATA PHARMACEUTICALS HOLDINGS, LLC, priority 2013, dated 2024).

Molecules are shown by their SMILES. Like-named read-outs stand apart in the source and are kept apart here.

A short description of one data set: TGA-MS of solid forms. It counts as physicochemical. To be noted: for hygroscopicity: indicated by TGA-MS; for mass loss in TGA-MS between 25 and 200° C.: traces of H2O. The protocol: The TGA was run with TA instruments, data were collected on a thermal balance (Q-5000, TA Instruments, New Castle, Del.) equipped with a data analyzer (Universal Analysis 2000, version 4.5A, TA Instruments, New Castle, Del.). During experiments, the furnace was purged with nitrogen at 60 mL/minute, while the balance chamber was purged at 40 mL/minute. Temperature of the TGA furnace was calibrated using curie points of […] and nickel. Sample size ranged from 2 to 20 mg, and a heating rate of 10° C./minute was used.
For TGA-MS, the thermogravimetric analysis part was the same as above. The mass of evolved gas was analyzed with […] GSD 301 T3 ThermoStar ([…] Vacuum, Asslar, Germany). The instrument was operated and data evaluated with Software Quadstar 32-bit (V7.01, Inficon, LI-9496 Balzers, Liechtenstein).

A further data set concerns glutathione levels. The data set is described as follows: induction of glutathione levels, RAW264.7 mouse model. It counts as cell-based. From the text:
Glutathione and NADPH are critical factors required for the maintenance of cellular redox capacity. […] Data shown are representative of two independent experiments.

Data set [1] has as its system TNFα-induced NF-κB activation. The data set is described as follows: TNFα-induced NF-κB luciferase reporter, HeLa/NF-κB-Luc cells. It counts as cell-based. To be noted: Homo sapiens, 1 h pretreatment, TNFα 10 ng/mL 5 h. From the text:
NF-κB is a transcription factor that plays a central role in the regulation of many immune and inflammatory responses.
In general terms: In a reporter assay the amount or activity of a reporter protein is the signal.

Data set [2] deals with IFNγ-induced NO production. The data set is described as follows: IFNγ-induced NO production in RAW264.7 macrophages (Griess reagent). It counts as cell-based. To be noted: Mus musculus. On the procedure:
(§1) Inhibition of IFNγ-induced NO production by AIMs is Nrf2-dependent (Dinkova-Kostova, 2005). […] Nitrite (NO2^−) levels in the media were measured as a surrogate for nitric oxide using the Griess reagent assay. Cell viability was assessed using the WST-1 assay. […] 63170, 63171, 63179, and 63189 are compounds of the formulas: […]
On the technique in general: The Griess reaction detects nitrite, a stable product of nitric oxide.

For data set [3], the system named is Nrf2 protein expression in SK-N-SH cells. In words: in-cell western NQO1 assay, SK-N-SH cells. It counts as cell-based. To be noted: Homo sapiens, 72 h, 3 days incubation, read-out: EC50 for induction of Nrf2 protein expression in SK-N-SH cells. The protocol:
HMOX1 protein was not detected in untreated or RTA 408-treated SH-SY5Y cells. […] The same amount of 63170 (54.6 nM) was required.
The EC50 was measured using an in-cell western NQO1 assay where the cells were incubated with the compound under evaluation for 3 days. After incubation with the compound of interest, the cells were reacted with mouse NQO1 antibody and then the next day the cells were reacted with IRDye-800CW-anti-mouse IgG antibody. The target signals were visualized and then analyzed.

The next data set has as its system RAW264.7 cells. In words: WST-1 cell viability, RAW264.7. The data set is classed as cell-based. To be noted: Mus musculus. On the procedure: as §1
A general note: Tetrazolium dyes change colour on reduction, which living cells bring about.

[4] abbreviates: 2 h pre-treatment, 20 ng/mL IFNγ 24 h, read-out: IC50, suppression of IFNγ-induced NO production.

For `CC1(C)CC[C@]2(NC(=O)C(C)(F)F)CC[C@]3(C)[C@H](C(=O)C=C4[C@@]5(C)C=C(C#N)C(=O)C(C)(C)[C@@H]5CC[C@]43C)[C@@H]2C1` [Form A], in “TGA-MS of solid forms”, the hygroscopicity result is “slightly hygroscopic”; the “mass loss in TGA-MS between 25 and 200° C.” value is approximately 0.5 wt.-%.

Consider `CC1(C)CC[C@]2(NC(=O)C(C)(F)F)CC[C@]3(C)[C@H](C(=O)C=C4[C@@]5(C)C=C(C#N)C(=O)C(C)(C)[C@@H]5CC[C@]43C)[C@@H]2C1` [Form B], for which, in the data set “TGA-MS of solid forms”, the hygroscopicity result was “very slightly hygroscopic”; the “mass loss in TGA-MS between 25 and 200° C.” value is approximately 0.2 wt.-%.

As usually defined, the EC50 is the concentration at which the effect is half-maximal. For orientation: IC50 means the concentration that inhibits the measured activity by half. In the case of `CC(=O)N[C@]12CCC(C)(C)C[C@H]1[C@H]1C(=O)C=C3[C@@]4(C)C=C(C#N)C(=O)C(C)(C)[C@@H]4CC[C@@]3(C)[C@]1(C)CC2` [compound 63170], the EC50 in the data set with glutathione levels worked out at 12.1 nM; in data set [3], 54.6 nM. Also, the results for the IC50 in data set [1] and in data set [2] (setting [4]) were 953 nM and 8 ± 3 nM, respectively.

For the molecule `CC1(C)CC[C@]2(NC(=O)C(F)(F)F)CC[C@]3(C)[C@H](C(=O)C=C4[C@@]5(C)C=C(C#N)C(=O)C(C)(C)[C@@H]5CC[C@]43C)[C@@H]2C1` [compound 63171], the EC50 in the data set with glutathione levels worked out at 23.2 nM; in data set [3], 122 nM. Further, the IC50 in data set [2] (setting [4]) is 6.9 ± 0.6 nM.

`CC1(C)CC[C@]2(NC(=O)CC(F)(F)F)CC[C@]3(C)[C@H](C(=O)C=C4[C@@]5(C)C=C(C#N)C(=O)C(C)(C)[C@@H]5CC[C@]43C)[C@@H]2C1` [compound 63179]: the IC50 in data set [2] (unit given as nm, read-out: IC50, suppression of IFNγ-induced NO production) was found to be 11 ± 2 nM. The EC50 in data set [3] was found to be 126 nM.

`CCC(=O)N[C@]12CCC(C)(C)C[C@H]1[C@H]1C(=O)C=C3[C@@]4(C)C=C(C#N)C(=O)C(C)(C)[C@@H]4CC[C@@]3(C)[C@]1(C)CC2` [compound 63189]: the half-maximal effective concentration (EC50) turned out to be 16 nM with glutathione levels and 102 nM in data set [3]. The results for the IC50 in data set [1] and in data set [2] (setting [4]) were 854 nM and 7 ± 2 nM, respectively.

In the case of `CC1(C)CC[C@]2(CO)CC[C@]3(C)[C@H](C(=O)C=C4[C@@]5(C)C=C(C#N)C(=O)C(C)(C)[C@@H]5CC[C@]43C)[C@@H]2C1` [compound 63355, reference compound], the half-inhibitory concentration (IC50) in data set [2] (Table 15, read-out: NO IC50 (nM), RAW264.7) was determined as 0.63 ± 0.06 nM; with RAW264.7 cells it was 150 nM.
